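Abbreviation: GI50, concentration required for 50% inhibition of growth. Definition used: TGI = concentration required for complete inhibition of growth.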
What was measured:
Test in all cases: NCI-60 cell line screen, 384-well format
786-0 renal = system: 786-0 renal
A498 renal = system: A498 renal
A549 NSCLC = system: A549 NSCLC
BT-549 breast = system: BT-549 breast
CCRF-CEM leukemia = system: CCRF-CEM leukemia
COLO 205 colon = system: COLO 205 colon
DU-145 prostate = system: DU-145 prostate
HCC-2998 colon = system: HCC-2998 colon
HCT-116 colon = system: HCT-116 colon
HL-60(TB) leukemia = system: HL-60(TB) leukemia
HOP-62 NSCLC = system: HOP-62 NSCLC
HOP-92 NSCLC = system: HOP-92 NSCLC
HS 578T breast = system: HS 578T breast
HT29 colon = system: HT29 colon
IGROV1 ovarian = system: IGROV1 ovarian
KM12 colon = system: KM12 colon
M14 melanoma = system: M14 melanoma
MALME-3M melanoma = system: MALME-3M melanoma
MCF7 breast = system: MCF7 breast
MDA-MB-231 breast = system: MDA-MB-231 breast
MDA-MB-435 melanoma = system: MDA-MB-435 melanoma
MDA-MB-468 breast = system: MDA-MB-468 breast
MOLT-4 leukemia = system: MOLT-4 leukemia
NCI-H226 lung = system: NCI-H226 lung
NCI-H23 lung = system: NCI-H23 lung
NCI-H322M lung = system: NCI-H322M lung
NCI-H460 NSCLC = system: NCI-H460 NSCLC
NCI-H522 lung = system: NCI-H522 lung
OVCAR-3 ovarian = system: OVCAR-3 ovarian
OVCAR-4 ovarian = system: OVCAR-4 ovarian
OVCAR-8 ovarian = system: OVCAR-8 ovarian
PC-3 prostate = system: PC-3 prostate
RPMI-8226 leukemia = system: RPMI-8226 leukemia
RXF 393 renal = system: RXF 393 renal
SF-268 CNS = system: SF-268 CNS
SF-295 CNS = system: SF-295 CNS
SF-539 CNS = system: SF-539 CNS
SK-MEL-28 melanoma = system: SK-MEL-28 melanoma
SK-OV-3 ovarian = system: SK-OV-3 ovarian
SN12C renal = system: SN12C renal
SNB-19 CNS = system: SNB-19 CNS
SNB-75 CNS = system: SNB-75 CNS
SR leukemia = system: SR leukemia
SW-620 colon = system: SW-620 colon
T-47D breast = system: T-47D breast
TK-10 renal = system: TK-10 renal
U251 glioblastoma = system: U251 glioblastoma
UACC-257 melanoma = system: UACC-257 melanoma
UACC-62 melanoma = system: UACC-62 melanoma
UO-31 renal = system: UO-31 renal
ACHN renal = system: ACHN renal
CAKI-1 renal = system: CAKI-1 renal
HCT-15 colon = system: HCT-15 colon
LOX IMVI melanoma = system: LOX IMVI melanoma
NCI/ADR-RES ovarian = system: NCI/ADR-RES ovarian

## CNC(=O)c1nn(C)c2c1C(C)(C)Cc1cnc(Nc3cccc(N4CCN(C)CC4)c3)nc1-2
786-0 renal
  GI50: 0.309 µM
  TGI: 10.9 µM
A498 renal
  GI50: 0.0466 µM
  TGI: 12.3 µM
A549 NSCLC
  GI50: 0.278 µM
  TGI: 12.8 µM
BT-549 breast
  GI50: 0.276 µM
  TGI: 2040 nM
CCRF-CEM leukemia
  GI50: 0.252 µM
  TGI: 1.21 µM
COLO 205 colon
  GI50: 416 nM
  TGI: 9.35 µM
DU-145 prostate
  GI50: 0.522 µM
  TGI: 10.5 µM
HCC-2998 colon
  GI50: 433 nM
  TGI: 6.56 µM
HCT-116 colon
  GI50: 0.123 µM
  TGI: 11.7 µM
HL-60(TB) leukemia
  GI50: 84.2 nM
  TGI: 1.63 µM
HOP-62 NSCLC
  GI50: 0.357 µM
  TGI: 7.18 µM
HOP-92 NSCLC
  GI50: 199 nM
  TGI: > 100 µM
HS 578T breast
  GI50: 0.148 µM
  TGI: 1310 nM
HT29 colon
  GI50: 0.886 µM
  TGI: 3.76 µM
IGROV1 ovarian
  GI50: 62.4 nM
  TGI: 616 nM
KM12 colon
  GI50: 0.0337 µM
  TGI: 10.6 µM
M14 melanoma
  GI50: 0.124 µM
  TGI: 3.59 µM
MALME-3M melanoma
  GI50: 0.253 µM
  TGI: 2030 nM
MCF7 breast
  GI50: 0.345 µM
  TGI: 11.4 µM
MDA-MB-231 breast
  GI50: 251 nM
  TGI: 43.6 µM
MDA-MB-435 melanoma
  GI50: 612 nM
  TGI: 11.3 µM
MDA-MB-468 breast
  GI50: 0.463 µM
  TGI: 1.83 µM
MOLT-4 leukemia
  GI50: 130 nM
  TGI: 317 nM
NCI-H226 lung
  GI50: 0.251 µM
  TGI: 4.6 µM
NCI-H23 lung
  GI50: 0.157 µM
  TGI: 895 nM
NCI-H322M lung
  GI50: 523 nM
  TGI: 11.2 µM
NCI-H460 NSCLC
  GI50: 89.3 nM
  TGI: 5.35 µM
NCI-H522 lung
  GI50: 0.153 µM
  TGI: 436 nM
OVCAR-3 ovarian
  GI50: 0.167 µM
  TGI: 741 nM
OVCAR-4 ovarian
  GI50: 2260 nM
  TGI: 10.6 µM
OVCAR-8 ovarian
  GI50: 1.45 µM
  TGI: 17.1 µM
PC-3 prostate
  GI50: 0.185 µM
  TGI: 11.2 µM
RPMI-8226 leukemia
  GI50: 0.0954 µM
  TGI: 253 nM
RXF 393 renal
  GI50: 0.122 µM
  TGI: 2140 nM
SF-268 CNS
  GI50: 0.536 µM
  TGI: 2270 nM
SF-295 CNS
  GI50: 0.375 µM
  TGI: 3.9 µM
SF-539 CNS
  GI50: 0.405 µM
  TGI: 3.42 µM
SK-MEL-28 melanoma
  GI50: 1080 nM
  TGI: 4.01 µM
SK-OV-3 ovarian
  GI50: 0.0422 µM
  TGI: 1290 nM
SN12C renal
  GI50: 0.198 µM
  TGI: 1740 nM
SNB-19 CNS
  GI50: 0.414 µM
  TGI: 24.1 µM
SNB-75 CNS
  GI50: 0.216 µM
  TGI: 2170 nM
SR leukemia
  TGI: 57.3 nM
SW-620 colon
  GI50: 0.391 µM
  TGI: 12.6 µM
T-47D breast
  GI50: 1610 nM
  TGI: 13.5 µM
TK-10 renal
  GI50: 336 nM
  TGI: 10.4 µM
U251 glioblastoma
  GI50: 0.437 µM
  TGI: 12.7 µM
UACC-257 melanoma
  GI50: 1160 nM
  TGI: 4.3 µM
UACC-62 melanoma
  GI50: 0.206 µM
  TGI: 2260 nM
UO-31 renal
  GI50: 0.235 µM
  TGI: 2190 nM

## O=C(CCBr)N1CCN(C(=O)CCBr)CC1
786-0 renal
  GI50: 33.1 µM
A498 renal
  GI50: 70.1 µM
A549 NSCLC
  GI50: 57.6 µM
ACHN renal
  GI50: 24.6 µM
  TGI: 87.4 µM
BT-549 breast
  GI50: 40 µM
CAKI-1 renal
  GI50: 33.3 µM
CCRF-CEM leukemia
  GI50: 11.4 µM
  TGI: 24.2 µM
DU-145 prostate
  GI50: 21.6 µM
HCT-116 colon
  GI50: 26.5 µM
HCT-15 colon
  GI50: 40.8 µM
HL-60(TB) leukemia
  GI50: 2060 nM
  TGI: 5.92 µM
HOP-62 NSCLC
  GI50: 13.6 µM
  TGI: 42.3 µM
HS 578T breast
  GI50: 22.5 µM
HT29 colon
  GI50: 91.5 µM
KM12 colon
  GI50: 88.1 µM
LOX IMVI melanoma
  GI50: 39.9 µM
M14 melanoma
  GI50: 25.8 µM
MALME-3M melanoma
  GI50: 98.8 µM
MCF7 breast
  GI50: 30.9 µM
MDA-MB-468 breast
  GI50: 9.42 µM
  TGI: 49 µM
MOLT-4 leukemia
  GI50: 1610 nM
  TGI: 3000 nM
NCI-H226 lung
  GI50: 56.3 µM
NCI-H23 lung
  GI50: 34.7 µM
NCI-H522 lung
  GI50: 32.7 µM
NCI/ADR-RES ovarian
  GI50: 52.2 µM
OVCAR-3 ovarian
  GI50: 41.5 µM
OVCAR-8 ovarian
  GI50: 37.2 µM
PC-3 prostate
  GI50: 82 µM
RPMI-8226 leukemia
  GI50: 17 µM
RXF 393 renal
  GI50: 44.4 µM
SF-268 CNS
  GI50: 13.7 µM
SF-295 CNS
  GI50: 21.8 µM
  TGI: 64.9 µM
SF-539 CNS
  GI50: 24 µM
  TGI: 99 µM
SK-OV-3 ovarian
  GI50: 45.2 µM
SN12C renal
  GI50: 18.3 µM
SNB-19 CNS
  GI50: 63 µM
SNB-75 CNS
  GI50: 20.9 µM
SW-620 colon
  GI50: 87.6 µM
U251 glioblastoma
  GI50: 24 µM
UACC-62 melanoma
  GI50: 15.1 µM
UO-31 renal
  GI50: 74.1 µM

From PubChem BioAssay (NCI)
